Entries after “also recorded” stand apart in the source; their conditions may differ.
What was measured:
[1] = tested on: Gal4-ERR3 mutants (A272F, A272L, F435L, L345I-F435L-F450L); test: Transient transfection luciferase reporter assay, Gal4-ERR3 mutants in COS-1 cells; assay type: cell-based, human; settings: 10^−6M 4-OHT
Description: FIG. 6: represents the transcriptional activities of wild-type and mutant ERR3 fusion proteins in transient transfection assays, wherein (A) COS-1 cells were transfected in 24-well plates with 250 ng per well of Gal4(5×)-TATA-LUC reporter and 50 ng of wt or mutant pCMX-Gal4-ERR3 expression plasmid. […] (B) Experiments were performed as described in (A) using 250 ng per well of Gal4(3×)-TK-LUC reporter plasmid and 50 ng of wt or mutant Gal4-ERR3 expression plasmid. […] FIGS. A to C represent an average of three independent experiments. The activity of the Gal4 DBD control was set to one.
COS-1 and BHK cells were cultured in DMEM supplemented with 5% FCS, penicillin, streptomycin, and glutamine. Neuro2A cells were cultured in EMEM supplemented with 10% FCS, penicillin, streptomycin, glutamine, and non-essential amino acids. Transient transfection assays were carried out in 24-well plates (0.5×10^5 cells per well for COS-1 and Neuro2A cells, 0.25×10^5 cells per well for BHK cells) using the standard calcium phosphate coprecipitation technique as described in Greiner et al. (Greiner et al., 1996). Cells were transfected with 250 ng of Gal4(5×)-TATA-LUC, Gal4(3×)-TK-LUC, or ERE(2×)-TK-LUC reporter plasmid and 50 ng per well of pCMX-Gal4-ERR3 or pCMX-ERR3 expression plasmid. The empty plasmids pCMX-Gal4 and pCMX served as control. […]

[2] = target: full length ERR3 (Homo sapiens, UniProt P62508); test: Transient transfection assay, full length ERR3 with ERE(2×)-TK-LUC reporter; assay type: cell-based; settings: in the presence of 4-OHT
Description: COS-1 and BHK cells were cultured in DMEM supplemented with 5% FCS, penicillin, streptomycin, and glutamine. Neuro2A cells were cultured in EMEM supplemented with 10% FCS, penicillin, streptomycin, glutamine, and non-essential amino acids. Transient transfection assays were carried out in 24-well plates (0.5×10^5 cells per well for COS-1 and Neuro2A cells, 0.25×10^5 cells per well for BHK cells) using the standard calcium phosphate coprecipitation technique as described in Greiner et al. (Greiner et al., 1996). Cells were transfected with 250 ng of Gal4(5×)-TATA-LUC, Gal4(3×)-TK-LUC, or ERE(2×)-TK-LUC reporter plasmid and 50 ng per well of pCMX-Gal4-ERR3 or pCMX-ERR3 expression plasmid. The empty plasmids pCMX-Gal4 and pCMX served as control. […] Luciferase activity was assayed as described in Greiner et al. (1996). All experiments were repeated at least three times. B. Results B.1.

[3] = target: T1, ERR3 LBD/GST-SRC-1 RID complex (Homo sapiens, UniProt P62508); test: In vitro protein-protein interaction assay, wt ERR3 LBD with SRC-1 RID (native gels); assay type: biochemical; settings: 10^−4M ligand
T1 construct: wt or mutant ERR3 LBDs (residues 229 to 458, human and murine receptor are identical); made in house; host or cells: E. coli BL21(DE3)
T1 sequence (P62508 229-458): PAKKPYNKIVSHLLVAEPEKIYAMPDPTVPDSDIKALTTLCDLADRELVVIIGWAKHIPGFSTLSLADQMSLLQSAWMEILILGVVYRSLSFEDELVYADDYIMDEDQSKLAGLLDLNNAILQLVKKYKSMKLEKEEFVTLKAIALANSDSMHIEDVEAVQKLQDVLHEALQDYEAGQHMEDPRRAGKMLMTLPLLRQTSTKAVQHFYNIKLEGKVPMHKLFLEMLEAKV
Description: The His-tagged wt or mutant ERR3 LBDs, the GST-tagged SRC-1 RID, and GST were expressed in E. coli BL21(DE3) and partially purified by affinity chromatography using TALON (Clontech) or Glutathione Sepharose 4B (Pharmacia), respectively. […] After purification the proteins were dialyzed in assay buffer (20 mM Tris.HCl pH 8.0, 200 mM NaCl), and concentrated. For the protein-protein interaction assays […] (about 70 pmol) of His-tagged wt or mutant ERR3 LBD were mixed with […] (about 100 pmol) of GST-tagged SRC-1 RID or […] of GST and incubated on ice for 10 mins. […] Protein complexes were resolved on native polyacrylamide gradient gels (8%-25%) using the Phast System (Pharmacia).
In vitro interaction assays with the RID (amino acids 617-764) of the coactivator SRC-1 has first been performed. Hexahistidine (His)-tagged ERR3, LBD and GST-tagged SRC-1 RID were partially purified by affinity chromatography, the proteins were mixed, and complex formation was monitored on native polyacrylamide gels. […] Complexes were separated on native polyacrylamide gradient gels.

[4] = target: T2, ERR3 (Homo sapiens, UniProt P62508); settings: Coward et al. (2001); cited from earlier work
T2 sequence (P62508 1-458): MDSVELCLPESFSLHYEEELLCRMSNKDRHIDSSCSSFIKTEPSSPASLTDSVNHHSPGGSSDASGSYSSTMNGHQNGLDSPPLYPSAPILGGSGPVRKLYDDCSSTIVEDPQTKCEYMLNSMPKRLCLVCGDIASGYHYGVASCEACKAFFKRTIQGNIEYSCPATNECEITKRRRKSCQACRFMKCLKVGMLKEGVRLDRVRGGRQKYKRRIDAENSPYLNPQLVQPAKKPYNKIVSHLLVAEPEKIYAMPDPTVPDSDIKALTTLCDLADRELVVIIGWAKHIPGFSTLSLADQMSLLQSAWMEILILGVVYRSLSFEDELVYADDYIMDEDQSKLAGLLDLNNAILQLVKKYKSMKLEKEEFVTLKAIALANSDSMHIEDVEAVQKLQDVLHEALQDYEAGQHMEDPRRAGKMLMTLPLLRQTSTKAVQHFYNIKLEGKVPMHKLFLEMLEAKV

[5] = target: T3, ERR1 (Homo sapiens, UniProt P11474); settings: Coward et al. (2001); cited from earlier work
T3 sequence (P11474 1-423): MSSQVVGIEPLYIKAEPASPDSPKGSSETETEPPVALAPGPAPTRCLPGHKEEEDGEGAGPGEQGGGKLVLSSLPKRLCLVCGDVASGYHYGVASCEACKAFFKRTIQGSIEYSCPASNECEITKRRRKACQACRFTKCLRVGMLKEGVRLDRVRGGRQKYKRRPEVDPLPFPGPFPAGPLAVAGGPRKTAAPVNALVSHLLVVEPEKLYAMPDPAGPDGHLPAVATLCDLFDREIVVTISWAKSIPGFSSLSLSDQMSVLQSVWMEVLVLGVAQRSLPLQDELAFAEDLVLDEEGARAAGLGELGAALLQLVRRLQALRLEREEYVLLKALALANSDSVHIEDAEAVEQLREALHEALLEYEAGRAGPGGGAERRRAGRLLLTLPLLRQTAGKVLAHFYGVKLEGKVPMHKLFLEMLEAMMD

[6] = target: T2, ERR3; settings: Coward et al. (2001); cited from earlier work; remark: listed apart in the source

Substance: 4-hydroxytamoxifen [4-OHT]
- transcriptional activity of Gal4-ERR3(F435L) and Gal4-ERR3(L345I-F435L-F450L) [1]: antagonizes
- active repression of transcription of the TK promoter by full length ERR3 [2]: does not actively repress transcription
- conformational change of the ERR3 LBD (migration on native gels) ([3]; native gels): retarded
- effect on the complex between the wt ERR3 LBD and GST-SRC-1 RID ([3]; native polyacrylamide gradient gels): specifically disrupted
- affinities of binding to ERR3 [4]: submicromolar
- binding to ERR1 [5]: does not bind
- transactivation / transcriptional activity mediated by ERR3 [6]: repressed; also recorded: selectively block

Source: patent US7279325B2, “Method for identifying antagonist compounds of the estrogen-related receptor 3 (ERR3) by using the x-ray structural coordinates of the ligand binding domain” (priority 2002, dated 2007)
